Results reported in ChEMBL document CHEMBL4043287, “A Structure-Activity Relationship Study of Bitopic N6-Substituted Adenosine Derivatives as Biased Adenosine A1 Receptor Agonists” (J Med Chem, 2018).
The source made the active and inactive calls. No cut-off for these calls is given here.

Assays:
[1] = target: T1, Adenosine receptor A1 (Homo sapiens, UniProt P30542); assay: Agonist activity at human A1AR expressed in FlpIn-CHO cells assessed as intracellular calcium mobilization by Fluo-4 dye-based fluorescence assay relative to control; type: cell-based
T1 sequence (P30542 whole entry): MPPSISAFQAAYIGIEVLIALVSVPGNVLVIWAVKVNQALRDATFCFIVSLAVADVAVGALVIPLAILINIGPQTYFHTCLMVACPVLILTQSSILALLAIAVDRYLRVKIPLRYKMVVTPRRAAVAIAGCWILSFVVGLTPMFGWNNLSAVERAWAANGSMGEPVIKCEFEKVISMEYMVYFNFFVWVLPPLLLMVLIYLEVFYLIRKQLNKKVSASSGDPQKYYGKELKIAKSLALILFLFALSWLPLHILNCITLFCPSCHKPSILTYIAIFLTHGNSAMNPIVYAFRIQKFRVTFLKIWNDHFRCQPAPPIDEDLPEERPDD

[2] = target: T2, Adenosine receptor A3 (Homo sapiens) (UniProt P0DMS8); assay: Agonist activity at human A3AR expressed in FlpIn-CHO cells assessed as inhibition of forskolin-stimulated cAMP accumulation preincubated for 10 mins followed by forskolin addition measured after 30 mins by Alphascreen assay relative to control; type: functional, cell-based
T2 sequence (whole entry): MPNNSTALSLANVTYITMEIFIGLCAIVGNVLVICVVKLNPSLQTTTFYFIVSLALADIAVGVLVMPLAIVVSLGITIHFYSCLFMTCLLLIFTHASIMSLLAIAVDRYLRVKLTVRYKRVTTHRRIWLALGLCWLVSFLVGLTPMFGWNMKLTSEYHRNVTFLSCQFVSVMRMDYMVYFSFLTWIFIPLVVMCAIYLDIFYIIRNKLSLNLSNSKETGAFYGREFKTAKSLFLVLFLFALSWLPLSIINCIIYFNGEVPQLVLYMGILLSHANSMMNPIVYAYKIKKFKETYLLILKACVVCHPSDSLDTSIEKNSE

[3] = target: T1, Adenosine receptor A1; assay: Agonist activity at human A1AR expressed in FlpIn-CHO cells assessed as inhibition of forskolin-stimulated cAMP accumulation preincubated for 10 mins followed by forskolin addition measured after 30 mins by Alphascreen assay; type: functional, cell-based
[4] = target: T1, Adenosine receptor A1; assay: Agonist activity at human A1AR expressed in FlpIn-CHO cells assessed as intracellular calcium mobilization by Fluo-4 dye-based fluorescence assay; type: cell-based
[5] = target: T1, Adenosine receptor A1; assay: Agonist activity at human A1AR expressed in FlpIn-CHO cells assessed as intracellular calcium mobilization by measuring agonist transduction coefficient by Fluo-4 dye-based fluorescence assay; type: cell-based
[6] = target: Adenosine receptor A2a (Homo sapiens, UniProt P29274); assay: Agonist activity at human A2A-AR expressed in FlpIn-CHO cells assessed as inhibition of forskolin-stimulated cAMP accumulation preincubated for 40 mins followed by forskolin addition measured after 30 mins by Alphascreen assay
[7] = target: T3, Adenosine receptor A2b (Homo sapiens, UniProt P29275); assay: Agonist activity at human A2BAR expressed in FlpIn-CHO cells assessed as […] cAMP accumulation preincubated for 40 mins followed by forskolin addition measured after 30 mins by Alphascreen assay; type: functional, cell-based
T3 sequence (P29275 whole entry): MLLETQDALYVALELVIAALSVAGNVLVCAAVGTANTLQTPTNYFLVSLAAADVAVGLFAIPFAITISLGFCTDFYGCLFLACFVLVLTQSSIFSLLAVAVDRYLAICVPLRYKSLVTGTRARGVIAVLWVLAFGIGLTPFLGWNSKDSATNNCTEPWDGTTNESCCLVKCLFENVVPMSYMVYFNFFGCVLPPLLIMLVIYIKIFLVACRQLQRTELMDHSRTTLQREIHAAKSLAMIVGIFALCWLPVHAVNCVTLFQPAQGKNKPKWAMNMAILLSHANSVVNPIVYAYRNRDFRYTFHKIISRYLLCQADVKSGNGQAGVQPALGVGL

[8] = target: T4, Adenosine receptor A2b (Homo sapiens) (UniProt P29275); assay: Agonist activity at human A2BAR expressed in FlpIn-CHO cells assessed as […] cAMP accumulation preincubated for 40 mins followed by forskolin addition measured after 30 mins by Alphascreen assay relative to control; type: functional, cell-based
T4 sequence (whole entry): T3 sequence (P29275 whole entry)

[9] = target: T5, Adenosine receptor A3 (Homo sapiens, UniProt P0DMS8); assay: Agonist activity at human A3AR expressed in FlpIn-CHO cells assessed as inhibition of forskolin-stimulated cAMP accumulation preincubated for 10 mins followed by forskolin addition measured after 30 mins by Alphascreen assay
T5 sequence (P0DMS8 whole entry): T2 sequence (whole entry)

[10] = target: T2, Adenosine receptor A3 (Homo sapiens); assay: Agonist activity at human A3AR expressed in FlpIn-CHO cells assessed as inhibition of forskolin-stimulated cAMP accumulation up to 10 uM preincubated for 10 mins followed by forskolin addition measured after 30 mins by Alphascreen assay; type: functional, cell-based

Chain of Adenosine receptor A2a (P29274 whole entry): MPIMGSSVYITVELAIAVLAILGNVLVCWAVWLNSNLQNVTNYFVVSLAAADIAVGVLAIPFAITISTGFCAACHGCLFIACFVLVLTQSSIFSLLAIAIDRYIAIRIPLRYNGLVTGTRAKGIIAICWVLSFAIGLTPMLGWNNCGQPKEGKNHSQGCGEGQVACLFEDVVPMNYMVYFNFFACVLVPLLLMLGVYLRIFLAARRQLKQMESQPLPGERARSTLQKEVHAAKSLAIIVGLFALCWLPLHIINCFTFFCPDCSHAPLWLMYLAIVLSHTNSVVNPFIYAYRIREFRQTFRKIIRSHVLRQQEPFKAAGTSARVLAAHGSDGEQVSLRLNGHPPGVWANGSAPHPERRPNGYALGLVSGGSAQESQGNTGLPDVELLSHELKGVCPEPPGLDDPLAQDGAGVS

Row | SMILES | Emax [1] [%] | Emax [2] [%] | EC50 [3] [nM] | EC50 [4] [nM] | log(activity) [5] | EC50 [6] [nM] | EC50 [7] [nM] | Emax [8] [%] | EC50 [9] [nM] | inhibition [10]
1 | CCNC(=O)[C@H]1O[C@@H](n2cnc3c(N)ncnc32)[C@H](O)[C@@H]1O [NECA] | 54 | 97 |  |  |  |  |  |  |  | 
2 | Nc1sc(-c2ccc(C(=O)NCCCCCCNc3ncnc4c3ncn4[C@@H]3O[C@H](CO)[C@@H](O)[C@H]3O)cc2)cc1C(=O)c1ccccc1 | 49 | 85 | 41.7 | 29.5 | 7.43 | 355 | 224 | 40 | 447 | 
3 | Nc1ccc(-c2cccc(C(=O)NCCCCCCNc3ncnc4c3ncn4[C@@H]3O[C@H](CO)[C@@H](O)[C@H]3O)c2)s1 | 47 | 72 |  | 34.7 | 7.4 | 1070 | 60.3 | 45 | 64.6 | 
4 | Nc1sc(-c2ccc(C(=O)NCCCCCCNc3nc(Cl)nc4c3ncn4[C@@H]3O[C@H](CO)[C@@H](O)[C@H]3O)cc2)c(-c2cccc(C(F)(F)F)c2)c1C(=O)c1ccccc1 | 20 |  | 224 | 135 | 6.32 | 145 | 18.6 | 39 |  | inactive
5 | Nc1sc(-c2ccccc2C(=O)NCCCCCCNc2ncnc3c2ncn3[C@@H]2O[C@H](CO)[C@@H](O)[C@H]2O)c(-c2cccc(C(F)(F)F)c2)c1C(=O)c1ccccc1 | 43 | 103 | 1290 | 1350 | 5.74 |  | 288 | 46 | 282 | 
6 | Nc1sc(-c2ccc(C(=O)NCCCCCCNc3ncnc4c3ncn4[C@@H]3O[C@H](CO)[C@@H](O)[C@H]3O)cc2)c(-c2cccc(C(F)(F)F)c2)c1C(=O)c1ccccc1 |  |  |  |  |  | 2290 |  |  |  | 
7 | CCNC(=O)[C@H]1O[C@@H](n2cnc3c(NCCCCCCNC(=O)c4ccc(-c5sc(N)c(C(=O)c6ccccc6)c5-c5cccc(C(F)(F)F)c5)cc4)ncnc32)[C@H](O)[C@@H]1O | 16 | 75 | 97.7 | 56.2 | 6.33 | 56.2 | 75.9 | 38 | 1410 | 
8 | CC(=O)Nc1sc(-c2ccc(C(=O)NCCCCCCNc3ncnc4c3ncn4[C@@H]3O[C@H](CO)[C@@H](O)[C@H]3O)cc2)c(-c2cccc(C(F)(F)F)c2)c1C(=O)c1ccccc1 | 20 | 60 | 138 | 891 | 5.02 | 2340 | 617 | 44 | 447 | 
9 | O=C(NCCCCCCNc1ncnc2c1ncn2[C@@H]1O[C@H](CO)[C@@H](O)[C@H]1O)c1cccc(-c2cc(C(=O)c3ccccc3)cs2)c1 | 39 | 74 | 138 | 87.1 | 6.91 | 437 | 158 | 27 | 407 | 
10 | Nc1sc(-c2ccc(C(=O)NCCCCCCCNc3ncnc4c3ncn4[C@@H]3O[C@H](CO)[C@@H](O)[C@H]3O)cc2)c(-c2cccc(C(F)(F)F)c2)c1C(=O)c1ccccc1 | 28 | 56 | 22.9 | 200 | 5.58 | 4900 | 468 | 38 | 331 | 
11 | O=C(NCCCCCCNc1ncnc2c1ncn2[C@@H]1O[C@H](CO)[C@@H](O)[C@H]1O)c1ccc(-c2sccc2-c2cccc(C(F)(F)F)c2)cc1 | 49 | 26 | 170 | 77.6 | 7.03 | 646 | 91.2 | 44 | 347 | 
12 | O=C(NCCCCCCNc1ncnc2c1ncn2[C@@H]1O[C@H](CO)[C@@H](O)[C@H]1O)c1cccc(-c2cccs2)c1 | 49 | 107 | 234 | 35.5 | 7.38 | 1320 | 17.8 | 42 | 832 | 
13 | Nc1cc(-c2cccc(C(F)(F)F)c2)c(-c2ccc(C(=O)NCCCCCCNc3ncnc4c3ncn4[C@@H]3O[C@H](CO)[C@@H](O)[C@H]3O)cc2)s1 | 42 | 58 | 38 | 110 | 6.86 | 2690 | 447 | 28 | 282 | 
14 | O=C(NCCCCCCNc1ncnc2c1ncn2[C@@H]1O[C@H](CO)[C@@H](O)[C@H]1O)c1ccc(-c2scc(C(=O)c3ccccc3)c2-c2cccc(C(F)(F)F)c2)cc1 | 40 |  | 110 | 562 | 5.74 | 2880 | 148 | 49 | > 1000 | 
15 | Nc1sc(-c2ccc(C(=O)NCCCCCNc3ncnc4c3ncn4[C@@H]3O[C@H](CO)[C@@H](O)[C@H]3O)cc2)c(-c2cccc(C(F)(F)F)c2)c1C(=O)c1ccccc1 | 31 |  | 95.5 | 74.1 | 6.11 | 3630 | 63.1 | 52 | > 1000 | 
16 | Nc1sc(-c2cccc(C(=O)NCCCCCCNc3ncnc4c3ncn4[C@@H]3O[C@H](CO)[C@@H](O)[C@H]3O)c2)c(-c2cccc(C(F)(F)F)c2)c1C(=O)c1ccccc1 | 48 | 80 | 105 | 93.3 | 6.98 | 148 | 35.5 | 43 | 123 | 
